Assay [1] has as its target T1, GST-GRASP55 FL (Mus musculus, UniProt Q99JX3).
T1 construct: gene Gorasp2; full-length aa 2-451, N-terminal GST tag, E. coli BL21(DE3)
The assay is described as follows: HTRF competition with biotinylated JAM-B C-terminal 19-mer peptide. Format: binding. A general note: In TR-FRET formats the signal depends on donor and acceptor labels being close together.

Assay [2] has as its target T2, His-GRASP55 PDZ12 (Mus musculus, UniProt Q99JX3).
T2 construct: gene Gorasp2; tandem PDZ domains PDZ12 aa 2-208, N-terminal 6His tag, E. coli BL21(DE3)
The assay is described as follows: differential scanning fluorimetry (SYPRO orange). Type of assay: binding. The conditions noted are these: 4 μM protein, 50 μM Graspin, PBS, 2.5% DMSO. The text has this:
differential scanning fluorimetry (SYPRO orange) on His-GRASP55 PDZ12 | […], but not the JAM-C peptide, decreased the GRASP55 melting temperature

Each structure is given as a SMILES string.

For `CCCCCn1c(SCCCn2c(Br)nc3c2c(=O)[nH]c(=O)n3C)nc2c1c(=O)[nH]c(=O)n2C` [Graspin], the IC50 (usually the concentration at which inhibition is half-maximal) in assay [1] was 8.4 µM. For the same molecule, the dTm entry in assay [2] is listed as “Graspin, but not the JAM-C peptide, decreased the GRASP55 melting temperature”.

The values are drawn from article PMC5472279, “Genetic, structural, and chemical insights into the dual function of GRASP55 in germ cell Golgi remodeling and JAM-C polarized localization during spermatogenesis” (PLoS Genetics, 2017).
